# Assay results taken from ChEMBL document CHEMBL1201861, “Genomics of Drug Sensitity in Cancer screening data, Wellcome Trust Sanger Institute”.
# Legend:
# Experiment in all cases: cells
# A3-KAW = format: functional, cell-based, Homo sapiens; conditions: Homo sapiens, A3-KAW;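 also: growth inhibition of human A3-KAW cells, read out with a cell viability assay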
# Description: SANGER: Inhibition of human A3-KAW cell growth in a cell viability assay.
# MEG-01 = format: functional, cell-based, Homo sapiens; conditions: Homo sapiens, MEG-01;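 also: growth inhibition of MEG-01 cells, read out by a cell viability assay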
# Description: SANGER: Inhibition of human MEG-01 cell growth in a cell viability assay.
# MC116 = format: functional, cell-based, Homo sapiens; conditions: Homo sapiens, MC116;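 also: growth inhibition of MC116 cells, read out with a cell viability assay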
# Description: SANGER: Inhibition of human MC116 cell growth in a cell viability assay.
# GT3TKB = format: functional, cell-based, Homo sapiens; conditions: Homo sapiens, GT3TKB;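 also: growth inhibition of the cell line, read out with a cell viability assay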
# Description: SANGER: Inhibition of human GT3TKB cell growth in a cell viability assay.
# NCI-H209 = format: functional, cell-based, Homo sapiens; conditions: Homo sapiens, NCI-H209;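 also: growth inhibition of human NCI-H209 cells, measured by a cell viability assay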
# Description: SANGER: Inhibition of human NCI-H209 cell growth in a cell viability assay.
# 8-MG-BA = format: functional, cell-based, Homo sapiens; conditions: Homo sapiens, 8-MG-BA;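 also: growth inhibition of 8-MG-BA cells, read out with a cell viability assay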
# Description: SANGER: Inhibition of human 8-MG-BA cell growth in a cell viability assay.
# Becker = format: functional, cell-based, Homo sapiens; conditions: Homo sapiens, Becker;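 also: growth inhibition of Becker cells, read out with a cell viability assay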
# Description: SANGER: Inhibition of human Becker cell growth in a cell viability assay.
# EW-11 = format: functional, cell-based, Homo sapiens; conditions: Homo sapiens, EW-11;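 also: growth inhibition of human EW-11 cells, measured with a cell viability assay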
# Description: SANGER: Inhibition of human EW-11 cell growth in a cell viability assay.
# A704 = format: functional, cell-based; conditions: Homo sapiens;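 also: growth inhibition of human A704 cells, read out with a cell viability assay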
# Description: SANGER: Inhibition of human A704 cell growth in a cell viability assay.
# BB65-RCC = format: functional, cell-based, Homo sapiens; conditions: Homo sapiens, BB65-RCC;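 also: growth inhibition of the cell line, measured with a cell viability assay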
# Description: SANGER: Inhibition of human BB65-RCC cell growth in a cell viability assay.
# SW 962 = format: functional, cell-based, Homo sapiens; conditions: Homo sapiens, SW 962;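 also: growth inhibition of human SW962 cells, read out by a cell viability assay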
# Description: SANGER: Inhibition of human SW962 cell growth in a cell viability assay.
# PSN1 = format: functional, cell-based, Homo sapiens; conditions: Homo sapiens, PSN1;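 also: suppression of growth of human PSN1 cells, read out by a cell viability assay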
# Description: SANGER: Inhibition of human PSN1 cell growth in a cell viability assay.
# TK-10 = format: functional, cell-based, Homo sapiens; conditions: Homo sapiens, TK-10;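 also: growth inhibition of TK-10 cells, read out in a cell viability assay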
# Description: SANGER: Inhibition of human TK10 cell growth in a cell viability assay.
# HOP-62 = format: functional, cell-based, Homo sapiens; conditions: Homo sapiens, HOP-62;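 also: cell growth inhibition determined with a viability assay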
# Description: SANGER: Inhibition of human HOP-62 cell growth in a cell viability assay.
# NB13 = format: functional, cell-based, Homo sapiens; conditions: Homo sapiens, NB13;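 also: cell viability readout measuring growth inhibition of human NB13 cells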
# Description: SANGER: Inhibition of human NB13 cell growth in a cell viability assay.
# RPMI-8226 = format: functional, cell-based, Homo sapiens; conditions: Homo sapiens, RPMI-8226
# Description: SANGER: Inhibition of human RPMI-8226 cell growth in a cell viability assay.
# MLMA = format: functional, cell-based, Homo sapiens; conditions: Homo sapiens, MLMA;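 also: growth inhibition of MLMA cells (human), determined through a cell viability readout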
# Description: SANGER: Inhibition of human MLMA cell growth in a cell viability assay.
# ES4 = format: functional, cell-based, Homo sapiens; conditions: Homo sapiens, ES4;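 also: growth inhibition of human ES4 cells, read out by a cell viability assay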
# Description: SANGER: Inhibition of human ES4 cell growth in a cell viability assay.
# LB771-HNC = format: functional, cell-based; conditions: Homo sapiens;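 also: growth inhibition of LB771-HNC human cells, read out with a cell viability assay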
# Description: SANGER: Inhibition of human LB771-HNC cell growth in a cell viability assay.
# D283 Med = format: functional, cell-based, Homo sapiens; conditions: Homo sapiens, D283 Med
# Description: SANGER: Inhibition of human D-283MED cell growth in a cell viability assay.
# U-87 MG = format: functional, cell-based, Homo sapiens, U-87MG ATCC; conditions: Homo sapiens, U-87 MG;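 also: growth inhibition of the cells measured with a viability assay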
# Description: SANGER: Inhibition of human U-87-MG cell growth in a cell viability assay.
# IST-MEL1 = format: functional, cell-based, Homo sapiens; conditions: Homo sapiens, IST-MEL1;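 also: growth inhibition of the cell line, read out with a cell viability assay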
# Description: SANGER: Inhibition of human IST-MEL1 cell growth in a cell viability assay.
# HD-MY-Z = format: functional, cell-based, Homo sapiens; conditions: Homo sapiens, HD-MY-Z;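 also: growth inhibition of HD-MY-Z cells, read out with a cell viability assay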
# Description: SANGER: Inhibition of human HD-MY-Z cell growth in a cell viability assay.
# OCUB-M = format: functional, cell-based; conditions: Homo sapiens;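 also: growth inhibition of the cancer cell line, read out through a cell viability assay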
# Description: SANGER: Inhibition of human OCUB-M cell growth in a cell viability assay.
# GAK = format: functional, cell-based, Homo sapiens; conditions: Homo sapiens, GAK;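 also: cell growth inhibition read out by a cell viability assay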
# Description: SANGER: Inhibition of human GAK cell growth in a cell viability assay.
# HT-144 = format: functional, cell-based, Homo sapiens; conditions: Homo sapiens, HT-144
# Description: SANGER: Inhibition of human HT-144 cell growth in a cell viability assay.
# D-247MG = format: functional, cell-based; conditions: Homo sapiens
# Description: SANGER: Inhibition of human D-247MG cell growth in a cell viability assay.
# SNB-75 = format: functional, cell-based, Homo sapiens; conditions: Homo sapiens, SNB-75;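 also: cell viability assay measuring growth inhibition of human SNB-75 cells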
# Description: SANGER: Inhibition of human SNB75 cell growth in a cell viability assay.
# SK-PN-DW = format: functional, cell-based, Homo sapiens; conditions: Homo sapiens, SK-PN-DW;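 also: growth inhibition measured with a viability assay on these cells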
# Description: SANGER: Inhibition of human SK-PN-DW cell growth in a cell viability assay.
# MHH-PREB-1 = format: functional, cell-based, Homo sapiens; conditions: Homo sapiens, MHH-PREB-1;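 also: cell viability assay measuring inhibition of proliferation of human MHH-PREB-1 cells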
# Description: SANGER: Inhibition of human MHH-PREB-1 cell growth in a cell viability assay.
# A498 = format: functional, cell-based, Homo sapiens; conditions: Homo sapiens, A498;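 also: growth inhibition of human A498 cells, read out with a cell viability assay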
# Description: SANGER: Inhibition of human A498 cell growth in a cell viability assay.
# NOMO-1 = format: functional, cell-based, Homo sapiens; conditions: Homo sapiens, NOMO-1;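 also: growth inhibition of human NOMO-1 cells measured by a cell viability assay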
# Description: SANGER: Inhibition of human NOMO-1 cell growth in a cell viability assay.
# TE-1 = format: functional, cell-based, Homo sapiens; conditions: Homo sapiens, TE-1;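 also: growth inhibition of the human TE-1 cell line, read out with a cell viability assay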
# Description: SANGER: Inhibition of human TE-1 cell growth in a cell viability assay.
# ETK-1 = format: functional, cell-based, Homo sapiens; conditions: Homo sapiens, ETK-1;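 also: growth inhibition of human ETK-1 cells, read out with a cell viability assay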
# Description: SANGER: Inhibition of human ETK-1 cell growth in a cell viability assay.
# LS-411N = format: functional, cell-based, Homo sapiens; conditions: Homo sapiens, LS-411N
# LNCaP-Clone-FGC = format: functional, cell-based, Homo sapiens; conditions: Homo sapiens, LNCaP-Clone-FGC
# Description: SANGER: Inhibition of human LNCaP-Clone-FGC cell growth in a cell viability assay.
# NCI-N87 = format: functional, cell-based; conditions: Homo sapiens;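 also: growth inhibition of human NCI-N87 cells, read out with a cell viability assay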
# Description: SANGER: Inhibition of human NCI-N87 cell growth in a cell viability assay.
# no-10 = format: functional, cell-based, Homo sapiens; conditions: Homo sapiens;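 also: growth inhibition of no-10 cells, read out with a cell viability assay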
# Description: SANGER: Inhibition of human no-10 cell growth in a cell viability assay.
# MMAC-SF = format: functional, cell-based; conditions: Homo sapiens;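 also: growth inhibition of human MMAC-SF cells, read out with a cell viability assay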
# Description: SANGER: Inhibition of human MMAC-SF cell growth in a cell viability assay.
# BB30-HNC = format: functional, cell-based, Homo sapiens; conditions: Homo sapiens, BB30-HNC;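 also: growth inhibition of the cultured cell line, read out by a cell viability assay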
# Description: SANGER: Inhibition of human BB30-HNC cell growth in a cell viability assay.
# C2BBe1 = format: functional, cell-based, Homo sapiens; conditions: Homo sapiens, C2BBe1;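 also: growth inhibition of C2BBe1 cells, read out through a viability assay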
# Description: SANGER: Inhibition of human C2BBe1 cell growth in a cell viability assay.
# JAR = format: functional, cell-based, Homo sapiens; conditions: Homo sapiens, JAR;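 also: growth inhibition of human JAR cells determined with a cell viability assay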
# Description: SANGER: Inhibition of human JAR cell growth in a cell viability assay.
# BB49-HNC = format: functional, cell-based, Homo sapiens; conditions: Homo sapiens, BB49-HNC;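 also: cell viability assay read-out, reported as inhibition of BB49-HNC cell growth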
# Description: SANGER: Inhibition of human BB49-HNC cell growth in a cell viability assay.
# KS-1 = format: functional, cell-based; conditions: Homo sapiens;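 also: growth inhibition of KS-1 cells, read out with a cell viability assay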
# Description: SANGER: Inhibition of human KS-1 cell growth in a cell viability assay.
# ES5 = format: functional, cell-based, Homo sapiens; conditions: Homo sapiens, ES5;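 also: growth inhibition of human ES5 cells, read out by a cell viability assay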
# Description: SANGER: Inhibition of human ES5 cell growth in a cell viability assay.
# SJSA-1 = format: functional, cell-based, Homo sapiens; conditions: Homo sapiens, SJSA-1;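 also: growth inhibition of human SJSA-1 cells, read out through a cell viability measurement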
# Description: SANGER: Inhibition of human SJSA-1 cell growth in a cell viability assay.
# DU-4475 = format: functional, cell-based, Homo sapiens; conditions: Homo sapiens, DU-4475
# Description: SANGER: Inhibition of human DU-4475 cell growth in a cell viability assay.
# KP-N-YS = format: functional, cell-based, Homo sapiens; conditions: Homo sapiens, KP-N-YS;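 also: cell viability assay measuring inhibition of cell line growth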
# Description: SANGER: Inhibition of human KP-N-YS cell growth in a cell viability assay.
# HL-60 = format: functional, cell-based, Homo sapiens; conditions: Homo sapiens, HL-60;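 also: growth inhibition of human HL-60 cells, read out with a cell viability assay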
# Description: SANGER: Inhibition of human HL-60 cell growth in a cell viability assay.
# SCH = format: functional, cell-based, Homo sapiens; conditions: Homo sapiens, SCH;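 also: growth inhibition of human SCH cells, read out in a cell viability assay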
# Description: SANGER: Inhibition of human SCH cell growth in a cell viability assay.
# DSH1 = format: functional, cell-based; conditions: Homo sapiens;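 also: growth inhibition of human DSH1 cells, measured with a cell viability readout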
# Description: SANGER: Inhibition of human DSH1 cell growth in a cell viability assay.
smiles,measurement,setting,value
COC(=O)[C@H](CCSC)NC(=O)c1ccc(NC[C@@H](N)CS)cc1-c1ccccc1,IC50,A3-KAW,> 1.02 µM
same,IC50,MEG-01,> 1.02 µM
same,IC50,MC116,> 1.02 µM
same,IC50,GT3TKB,> 1.02 µM
same,IC50,NCI-H209,> 1.02 µM
same,IC50,8-MG-BA,> 1.02 µM
same,IC50,Becker,> 1.02 µM
same,IC50,EW-11,> 1.02 µM
same,IC50,A704,> 1.02 µM
same,IC50,BB65-RCC,> 1.02 µM
same,IC50,SW 962,> 1.02 µM
same,IC50,PSN1,> 1.02 µM
same,IC50,TK-10,> 1.02 µM
same,IC50,HOP-62,> 1.02 µM
same,IC50,NB13,> 1.02 µM
same,IC50,RPMI-8226,> 1.02 µM
same,IC50,MLMA,> 1.02 µM
same,IC50,ES4,> 1.02 µM
same,IC50,LB771-HNC,> 1.02 µM
same,IC50,D283 Med,> 1.02 µM
same,IC50,U-87 MG,> 1.02 µM
same,IC50,IST-MEL1,> 1.02 µM
same,IC50,HD-MY-Z,> 1.02 µM
same,IC50,OCUB-M,> 1.02 µM
same,IC50,GAK,> 1.02 µM
same,IC50,HT-144,> 1.02 µM
same,IC50,D-247MG,> 1.02 µM
same,IC50,SNB-75,> 1.02 µM
same,IC50,SK-PN-DW,> 1.02 µM
same,IC50,MHH-PREB-1,> 1.02 µM
same,IC50,A498,> 1.02 µM
same,IC50,NOMO-1,> 1.02 µM
same,IC50,TE-1,> 1.02 µM
same,IC50,ETK-1,> 1.02 µM
same,IC50,LS-411N,> 1.02 µM
same,IC50,LNCaP-Clone-FGC,> 1.02 µM
same,IC50,NCI-N87,> 1.02 µM
same,IC50,no-10,> 1.02 µM
same,IC50,MMAC-SF,> 1.02 µM
same,IC50,BB30-HNC,> 1.02 µM
same,IC50,C2BBe1,> 1.02 µM
same,IC50,JAR,> 1.02 µM
same,IC50,BB49-HNC,> 1.02 µM
same,IC50,KS-1,> 1.02 µM
same,IC50,ES5,> 1.02 µM
same,IC50,SJSA-1,> 1.02 µM
same,IC50,DU-4475,> 1.02 µM
same,IC50,KP-N-YS,> 1.02 µM
same,IC50,HL-60,> 1.02 µM
same,IC50,SCH,> 1.02 µM
same,IC50,DSH1,> 1.02 µM
O=S(=O)(O)c1ccc2cc(/N=N/c3cc(S(=O)(=O)O)c4cccnc4c3O)ccc2c1,IC50,A3-KAW,> 16 µM
same,IC50,MEG-01,> 16 µM
same,IC50,MC116,> 16 µM
same,IC50,GT3TKB,> 16 µM
same,IC50,NCI-H209,> 16 µM
same,IC50,8-MG-BA,> 16 µM
same,IC50,Becker,> 16 µM
same,IC50,EW-11,> 16 µM
same,IC50,A704,> 16 µM
same,IC50,BB65-RCC,> 16 µM
same,IC50,SW 962,> 16 µM
same,IC50,PSN1,> 16 µM
same,IC50,TK-10,> 16 µM
same,IC50,HOP-62,> 16 µM
same,IC50,NB13,> 16 µM
same,IC50,RPMI-8226,> 16 µM
same,IC50,MLMA,> 16 µM
same,IC50,ES4,> 16 µM
same,IC50,LB771-HNC,> 16 µM
same,IC50,D283 Med,> 16 µM
same,IC50,U-87 MG,> 16 µM
same,IC50,IST-MEL1,> 16 µM
same,IC50,HD-MY-Z,> 16 µM
same,IC50,OCUB-M,> 16 µM
same,IC50,GAK,> 16 µM
same,IC50,HT-144,> 16 µM
same,IC50,D-247MG,> 16 µM
same,IC50,SNB-75,> 16 µM
same,IC50,SK-PN-DW,> 16 µM
same,IC50,MHH-PREB-1,> 16 µM
same,IC50,A498,> 16 µM
same,IC50,NOMO-1,> 16 µM
same,IC50,TE-1,> 16 µM
same,IC50,ETK-1,> 16 µM
same,IC50,LS-411N,> 16 µM
same,IC50,LNCaP-Clone-FGC,> 16 µM
same,IC50,NCI-N87,> 16 µM
same,IC50,no-10,> 16 µM
same,IC50,MMAC-SF,> 16 µM
same,IC50,BB30-HNC,> 16 µM
same,IC50,C2BBe1,> 16 µM
same,IC50,JAR,> 16 µM
same,IC50,BB49-HNC,> 16 µM
same,IC50,KS-1,> 16 µM
same,IC50,ES5,> 16 µM
same,IC50,SJSA-1,> 16 µM
same,IC50,DU-4475,> 16 µM
same,IC50,KP-N-YS,> 16 µM
same,IC50,HL-60,> 16 µM
same,IC50,SCH,> 16 µM
same,IC50,DSH1,> 16 µM
